PubChem BioAssay (NCI)
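Cells were grown in 96-well plates and exposed to each compound for 48 hours at five concentrations; endpoints were interpolated linearly between bracketing concentrations, or set to the highest concentration if not reached. Abbreviation: GI50, concentration required for 50% inhibition of growth. The concentration for full growth arrest is given as TGI.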

Columns and labels:
Assay in all cases: NCI anticancer screen, dose series, 48 h
UO-31 renal = system: UO-31 renal
DU-145 prostate = system: DU-145 prostate
T-47D breast = system: T-47D breast
RXF 393 renal = system: RXF 393 renal
SR leukemia = system: SR leukemia
786-0 renal = system: 786-0 renal
CCRF-CEM leukemia = system: CCRF-CEM leukemia
SK-MEL-2 melanoma = system: SK-MEL-2 melanoma
NCI-H460 lung = system: NCI-H460 lung
EKVX NSCLC = system: EKVX NSCLC

C=C1CC[C@@H]2[C@](C)(COC(C)=O)[C@H](OC(C)=O)CC[C@@]2(C)[C@@H]1CC(Nc1ccc(S(=O)(=O)Nc2ncccn2)cc1)C1=CCOC1=O (stereo partly drawn)
GI50 (UO-31 renal): 1.51 µM | TGI (UO-31 renal): 2.97 µM | GI50 (DU-145 prostate): 1.62 µM | TGI (DU-145 prostate): 3.07 µM | GI50 (T-47D breast): 2 µM | TGI (T-47D breast): 5.46 µM | GI50 (RXF 393 renal): 1.95 µM | TGI (RXF 393 renal): 3.58 µM | GI50 (SR leukemia): 0.313 µM | TGI (SR leukemia): 17.2 µM | GI50 (786-0 renal): 1.77 µM | TGI (786-0 renal): 3.39 µM | GI50 (CCRF-CEM leukemia): 0.738 µM | TGI (CCRF-CEM leukemia): 3.41 µM | GI50 (SK-MEL-2 melanoma): 2.36 µM | TGI (SK-MEL-2 melanoma): 7.2 µM | GI50 (NCI-H460 lung): 1.98 µM | TGI (NCI-H460 lung): 4.06 µM | GI50 (EKVX NSCLC): 8.18 µM | TGI (EKVX NSCLC): 20.6 µM

Nc1nc(-c2cccc(Cl)c2)c(-c2ccc3ncccc3n2)s1
GI50 (UO-31 renal): 10.1 µM | TGI (UO-31 renal): > 25 µM | GI50 (DU-145 prostate): > 25 µM | TGI (DU-145 prostate): > 25 µM | GI50 (T-47D breast): 5.88 µM | TGI (T-47D breast): > 25 µM | GI50 (RXF 393 renal): > 25 µM | TGI (RXF 393 renal): > 25 µM | GI50 (SR leukemia): > 25 µM | TGI (SR leukemia): > 25 µM | GI50 (786-0 renal): > 25 µM | TGI (786-0 renal): > 25 µM | GI50 (CCRF-CEM leukemia): > 25 µM | TGI (CCRF-CEM leukemia): > 25 µM | GI50 (SK-MEL-2 melanoma): > 25 µM | TGI (SK-MEL-2 melanoma): > 25 µM | GI50 (NCI-H460 lung): > 25 µM | TGI (NCI-H460 lung): > 25 µM | GI50 (EKVX NSCLC): > 25 µM | TGI (EKVX NSCLC): > 25 µM

N#Cc1cccc(NC(=O)c2cc(-c3ccc(F)cc3F)ccc2O)c1
GI50 (UO-31 renal): 2.26 µM | TGI (UO-31 renal): 6.99 µM | GI50 (DU-145 prostate): 3.26 µM | TGI (DU-145 prostate): > 100 µM | GI50 (T-47D breast): 1.1 µM | TGI (T-47D breast): 6.83 µM | GI50 (RXF 393 renal): 2.69 µM | TGI (RXF 393 renal): 7.63 µM | GI50 (SR leukemia): 3.72 µM | TGI (SR leukemia): 89.2 µM | GI50 (786-0 renal): 2.69 µM | TGI (786-0 renal): 19.4 µM | GI50 (CCRF-CEM leukemia): 3.07 µM | TGI (CCRF-CEM leukemia): 47.7 µM | GI50 (SK-MEL-2 melanoma): 1.76 µM | TGI (SK-MEL-2 melanoma): 5.49 µM | GI50 (NCI-H460 lung): 2.75 µM | TGI (NCI-H460 lung): 11.2 µM | GI50 (EKVX NSCLC): 2.65 µM | TGI (EKVX NSCLC): 10.9 µM

CCCCN1CSC(=S)N(Cc2ccccc2)C1
TGI (UO-31 renal): > 100 µM | TGI (DU-145 prostate): > 100 µM | TGI (T-47D breast): > 100 µM | TGI (RXF 393 renal): > 100 µM | TGI (SR leukemia): > 100 µM | TGI (786-0 renal): > 100 µM | TGI (CCRF-CEM leukemia): 32.9 µM | TGI (SK-MEL-2 melanoma): > 100 µM | TGI (NCI-H460 lung): > 94.3 µM | TGI (EKVX NSCLC): 78.7 µM

Nc1ncn(C2CC(O)C(CO)O2)c(=O)n1 (stereo not drawn)
TGI (UO-31 renal): > 375 µM | TGI (DU-145 prostate): > 375 µM | TGI (T-47D breast): > 299 µM | TGI (RXF 393 renal): 350 µM | TGI (SR leukemia): > 141 µM | TGI (786-0 renal): > 256 µM | TGI (CCRF-CEM leukemia): > 261 µM | TGI (SK-MEL-2 melanoma): 232 µM | TGI (NCI-H460 lung): > 375 µM | TGI (EKVX NSCLC): > 293 µM

COc1cc2c3c(n(C)c(=O)c2cc1OC)-c1cc2c(cc1/C3=C\CNCCCN)OCO2
GI50 (UO-31 renal): 6.96 µM | TGI (UO-31 renal): > 100 µM | GI50 (DU-145 prostate): 1.15 µM | TGI (DU-145 prostate): 12.8 µM | TGI (T-47D breast): 3.02 µM | GI50 (RXF 393 renal): 1.69 µM | TGI (RXF 393 renal): 7.1 µM | GI50 (SR leukemia): 0.0203 µM | TGI (SR leukemia): 0.618 µM | GI50 (786-0 renal): 0.367 µM | TGI (786-0 renal): 6.07 µM | GI50 (CCRF-CEM leukemia): 0.0239 µM | TGI (CCRF-CEM leukemia): 0.15 µM | GI50 (SK-MEL-2 melanoma): 2.33 µM | GI50 (NCI-H460 lung): 0.75 µM | TGI (NCI-H460 lung): 12.9 µM | GI50 (EKVX NSCLC): 2.85 µM | TGI (EKVX NSCLC): 12.2 µM

COc1cc(NS(=O)(=O)c2ccc(-c3cnc(C4CC4)o3)cc2)ccc1F
GI50 (UO-31 renal): 0.581 µM | TGI (UO-31 renal): 24.1 µM | GI50 (DU-145 prostate): 0.765 µM | TGI (DU-145 prostate): 58.9 µM | GI50 (T-47D breast): 0.436 µM | TGI (T-47D breast): 38.9 µM | GI50 (RXF 393 renal): 0.276 µM | TGI (RXF 393 renal): 6.52 µM | GI50 (SR leukemia): 0.102 µM | TGI (SR leukemia): > 100 µM | GI50 (786-0 renal): 0.694 µM | TGI (786-0 renal): 21.4 µM | GI50 (CCRF-CEM leukemia): 0.326 µM | TGI (CCRF-CEM leukemia): > 100 µM | GI50 (SK-MEL-2 melanoma): 0.706 µM | TGI (SK-MEL-2 melanoma): 23.6 µM | GI50 (NCI-H460 lung): 0.447 µM | TGI (NCI-H460 lung): 14.4 µM | GI50 (EKVX NSCLC): 1.13 µM | TGI (EKVX NSCLC): 95.5 µM

COC(=O)c1c(C)[nH]c(/C=C2\N=C(c3ccc[nH]3)C=C2OC)c1C
GI50 (UO-31 renal): 0.113 µM | TGI (UO-31 renal): 0.28 µM | GI50 (DU-145 prostate): 0.426 µM | TGI (DU-145 prostate): > 100 µM | GI50 (T-47D breast): 0.816 µM | TGI (T-47D breast): 3.99 µM | GI50 (RXF 393 renal): 0.515 µM | TGI (RXF 393 renal): 4.27 µM | GI50 (SR leukemia): 0.0947 µM | TGI (SR leukemia): 0.679 µM | GI50 (786-0 renal): 0.262 µM | TGI (786-0 renal): 1.4 µM | GI50 (CCRF-CEM leukemia): 0.0501 µM | TGI (CCRF-CEM leukemia): > 100 µM | GI50 (SK-MEL-2 melanoma): 0.328 µM | TGI (SK-MEL-2 melanoma): 1.27 µM | GI50 (NCI-H460 lung): 0.147 µM | TGI (NCI-H460 lung): > 100 µM | GI50 (EKVX NSCLC): 1.07 µM | TGI (EKVX NSCLC): 3.28 µM

CC1(C)N=C(N)N=C(N)N1c1ccc(OCc2ccc(S(=O)(=O)F)c(Cl)c2)c(Cl)c1
GI50 (UO-31 renal): 46 µM | TGI (UO-31 renal): > 100 µM | GI50 (DU-145 prostate): 4 µM | TGI (DU-145 prostate): > 100 µM | GI50 (T-47D breast): 77.7 µM | TGI (T-47D breast): > 100 µM | GI50 (RXF 393 renal): 18.7 µM | TGI (RXF 393 renal): > 100 µM | GI50 (SR leukemia): 0.432 µM | TGI (SR leukemia): > 100 µM | GI50 (786-0 renal): 0.814 µM | TGI (786-0 renal): > 100 µM | GI50 (CCRF-CEM leukemia): 1.06 µM | TGI (CCRF-CEM leukemia): > 100 µM | GI50 (SK-MEL-2 melanoma): > 100 µM | TGI (SK-MEL-2 melanoma): > 100 µM | GI50 (NCI-H460 lung): 0.426 µM | TGI (NCI-H460 lung): > 100 µM | GI50 (EKVX NSCLC): > 100 µM | TGI (EKVX NSCLC): > 100 µM

CCN(CC)CCCC(C)Nc1cnc(C(=O)Nc2cccc3ccc(OC)nc23)cn1 (stereo not drawn)
GI50 (UO-31 renal): 1.46 µM | TGI (UO-31 renal): 2.82 µM | GI50 (DU-145 prostate): 4.24 µM | TGI (DU-145 prostate): 15.3 µM | GI50 (T-47D breast): 1.85 µM | TGI (T-47D breast): 3.95 µM | GI50 (RXF 393 renal): 1.25 µM | TGI (RXF 393 renal): 2.86 µM | GI50 (SR leukemia): 2.27 µM | TGI (SR leukemia): 7.36 µM | GI50 (786-0 renal): 1.64 µM | TGI (786-0 renal): 3.21 µM | GI50 (CCRF-CEM leukemia): 2.74 µM | TGI (CCRF-CEM leukemia): 8.11 µM | GI50 (SK-MEL-2 melanoma): 1.85 µM | TGI (SK-MEL-2 melanoma): 3.68 µM | GI50 (NCI-H460 lung): 2.12 µM | TGI (NCI-H460 lung): 4.66 µM | GI50 (EKVX NSCLC): 2.52 µM | TGI (EKVX NSCLC): 8.36 µM

Cn1cnc([N+](=O)[O-])c1[Se]c1nc(N)nc2c1ncn2C1OC(CO)C(O)C1O (stereo not drawn)
TGI (UO-31 renal): > 100 µM | TGI (DU-145 prostate): > 100 µM | TGI (T-47D breast): > 100 µM | TGI (RXF 393 renal): > 100 µM | TGI (SR leukemia): > 100 µM | TGI (786-0 renal): > 100 µM | TGI (CCRF-CEM leukemia): > 100 µM | TGI (SK-MEL-2 melanoma): > 100 µM | TGI (NCI-H460 lung): > 100 µM | TGI (EKVX NSCLC): > 100 µM
